We go through two compounds from article PMC11997890, “In Vivo and In Vitro Pharmacokinetic Studies of a Dual Topoisomerase I/II Inhibitor” (ACS Pharmacology & Translational Science, 2025).

The subject of one data set is γ-globulins. Briefly: Binding to isolated plasma protein by ultrafiltration. Set-up: species or system human. As for the experimental part: (§1) To examine the effect of the P8-D6 plasma protein binding on the in vivo bioavailability, human and rat plasma was spiked in vitro and incubated with P8-D6. By using ultrafiltration to separate free P8-D6 from the protein-bound fraction, a plasma protein binding of 99% (Figure A) was estimated. However, neither human α-1-microglobulin (3.06%) nor human serum albumin (0.91%) is responsible for binding. According to initial findings, γ-globulins (94.59%), human transferrin (90.43%), LDL (87.99%), human α2-HS glycoprotein (85.29%), and human fibrinogen (78.89%) lead to binding of P8-D6.
(§2) To examine the extent of plasma protein binding, 150 μL of blank samples of human plasma (1 mM) and rat plasma (1 mM), human albumin (1 mM, #A1653, Merck KGaA, Darmstadt); human α1-acid glycoprotein (1 mM; #G9885, Merck KGaA, Darmstadt); human α2-HS-glycoprotein (0.1 mM; #G0516, Merck KGaA, Darmstadt); human transferrin (0.2 mM; #T8158, Merck KGaA, Darmstadt); human fibrinogen (0.2 mM; #F3879, Merck KGaA, Darmstadt); LDL (0.2 mM; […]); and human γ-globulin (1 mM; #G4386, Merck KGaA, Darmstadt) were spiked with P8-D6 in the same final concentration as the protein and incubated in a shaking water bath at 37 °C for 120 min. Afterward, the unbound fraction of P8-D6 was separated by ultrafiltration (Vivaspin 500 10 000 MWCO filter). The sample preparation was performed according to plasma samples. […]

The next data set deals with T1, CYP2C19 (Homo sapiens, UniProt P33261).
T1 construct: host or cells: human liver microsomes (one value) / recombinant CYP enzyme (other value)
T1 sequence (P33261 whole entry): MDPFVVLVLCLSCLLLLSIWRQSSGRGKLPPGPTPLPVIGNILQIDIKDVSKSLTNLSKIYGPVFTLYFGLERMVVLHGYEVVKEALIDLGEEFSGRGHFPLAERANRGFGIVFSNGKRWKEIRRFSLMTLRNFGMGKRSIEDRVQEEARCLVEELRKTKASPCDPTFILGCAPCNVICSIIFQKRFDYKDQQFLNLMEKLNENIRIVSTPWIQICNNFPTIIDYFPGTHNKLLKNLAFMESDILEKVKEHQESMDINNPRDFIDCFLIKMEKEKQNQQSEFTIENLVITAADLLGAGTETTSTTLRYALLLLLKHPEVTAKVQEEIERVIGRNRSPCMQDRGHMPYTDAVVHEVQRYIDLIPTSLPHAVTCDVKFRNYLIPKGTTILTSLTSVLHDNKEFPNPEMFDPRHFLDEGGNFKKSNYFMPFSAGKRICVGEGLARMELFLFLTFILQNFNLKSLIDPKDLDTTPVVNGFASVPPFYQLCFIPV
In words: In vitro CYP inhibition, marker substrate amitriptyline. In kind it is in vitro ADME. As for the experimental part: (§3) To assess metabolizing enzyme-mediated drug interactions, P8-D6 was incubated with human liver (HLM) or recombinant CYP enzymes and the respective marker substrate according to the FDA (with the exception of using amitriptyline instead of S-mephenytoin). −
(§4) However, as some conversions were catalyzed by several enzymes, the conversion rates in HLM increased (e.g., bupropion and diclofenac).
(§5) To examine a possible in vitro CYP inhibition, the following CYP enzymes and marker substrates were investigated according to the FDA: , phenacetin (CYP1A2), bupropion (CYP2B6), amodiaquine (CYP2C8), diclofenac (CYP2C9), amitriptyline (CYP2C19), dextromethorphan (CYP2D6), testosterone (CYP3A4), and nifedipine (CYP3A4). Incubation was performed in a 0.2 mL reaction mix consisting of PBS buffer (pH 7.4), 1 mM marker substrate, 1 mM NADPH, and either 0.5 mg/mL recombinant CYP enzyme or human liver microsomes. P8-D6 was added for a final concentration of 0.5 μM, 1 μM, 5 μM, 10 μM, 25 μM, 50 μM, 100 μM, 500 μM, 1000 μM, and (in some cases) 5000 μM. Sample preparation was performed according to in vitro biotransformation.

The target in the next data set is T2, CYP2C9 (Homo sapiens, UniProt P11712).
T2 construct: host or cells: human liver microsomes (one value) / recombinant CYP enzyme (other value)
T2 sequence (P11712 whole entry): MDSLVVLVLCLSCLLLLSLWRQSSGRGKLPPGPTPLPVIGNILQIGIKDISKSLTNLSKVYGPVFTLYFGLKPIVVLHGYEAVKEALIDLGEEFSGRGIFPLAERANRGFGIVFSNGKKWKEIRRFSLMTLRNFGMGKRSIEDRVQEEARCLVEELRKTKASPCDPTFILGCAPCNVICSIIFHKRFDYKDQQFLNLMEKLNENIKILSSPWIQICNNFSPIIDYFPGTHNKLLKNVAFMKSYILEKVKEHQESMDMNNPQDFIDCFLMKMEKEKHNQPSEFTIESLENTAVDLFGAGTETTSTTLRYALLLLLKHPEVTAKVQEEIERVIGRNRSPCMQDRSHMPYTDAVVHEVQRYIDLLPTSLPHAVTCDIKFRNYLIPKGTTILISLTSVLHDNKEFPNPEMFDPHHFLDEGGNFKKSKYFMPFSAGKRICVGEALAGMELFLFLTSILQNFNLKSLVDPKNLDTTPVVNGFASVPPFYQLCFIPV
Briefly: In vitro CYP inhibition, marker substrate diclofenac. In kind it is in vitro ADME. As to the method: as §3, §4, §5

Another data set has as its target T3, CYP1A2 (Homo sapiens, UniProt P05177).
T3 construct: host or cells: human liver microsomes (one value) / recombinant CYP enzyme (other value)
Briefly: In vitro CYP inhibition, marker substrate phenacetin. In kind it is in vitro ADME. As for the experimental part:
as §3, §4, §5

The nature of data set [1]: Plasma protein binding by ultrafiltration. Set-up: dose or concentration left out as unconfirmed. In kind it is in vitro ADME. The following applies: human, rat, human and rat plasma, 37 °C. As for the experimental part: as §1
as §2, with “(1 mM)” left out, “[…],” for “(1 mM),”

For the next data set, the target named is T4, CYP2D6 (Homo sapiens, UniProt P10635).
T4 construct: host or cells: human liver microsomes (one value) / recombinant CYP enzyme (other value)
T4 sequence (P10635 whole entry): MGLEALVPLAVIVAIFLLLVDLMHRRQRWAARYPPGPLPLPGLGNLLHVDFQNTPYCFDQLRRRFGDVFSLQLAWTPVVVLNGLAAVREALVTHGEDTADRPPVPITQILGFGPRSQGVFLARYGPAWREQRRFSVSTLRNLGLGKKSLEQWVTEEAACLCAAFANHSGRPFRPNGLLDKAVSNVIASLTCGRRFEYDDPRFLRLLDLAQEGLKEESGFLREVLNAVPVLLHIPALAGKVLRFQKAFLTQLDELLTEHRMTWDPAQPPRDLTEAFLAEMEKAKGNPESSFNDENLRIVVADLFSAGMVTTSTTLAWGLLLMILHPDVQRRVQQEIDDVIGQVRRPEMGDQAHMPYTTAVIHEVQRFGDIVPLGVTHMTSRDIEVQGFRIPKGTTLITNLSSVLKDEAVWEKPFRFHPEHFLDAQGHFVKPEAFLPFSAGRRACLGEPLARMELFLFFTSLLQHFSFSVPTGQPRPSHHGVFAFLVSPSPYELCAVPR
In words: In vitro CYP inhibition, marker substrate dextromethorphan. In kind it is in vitro ADME. As to the method:
as §3, §4, §5

The nature of the next data set: Lipophilicity. In kind it is physicochemical.
Data set [2] in a line: In vitro biotransformation of P8-D6 with mouse tissue PNS. In kind it is in vitro ADME. The following applies: mouse liver PNS, 1 mM P8-D6, 150 min. As for the experimental part: (§6) P8-D6 (1 mM) was incubated with postnuclear supernatant (PNS), microsomes, or S9 reaction mixture of various tissue samples (liver, kidney, lung, spleen, and colon) from different donor species (pigs, mice, rats, and humans) for 150 min (study preparation scheme supplied as Figure S5). The commercial human and rat enzymes were subjected to quality control by the supplier. Three phase I metabolites were identified. […] LC-MS and NMR spectroscopic data for the metabolites are given in Supporting Information. Based on the structural characteristics, the metabolites were named as follows: P8-DO (4), P8-D6 N-oxide (6), and P8-D6 mono (8). All metabolites were synthesized to confirm the postulated structure (chapter Synthesis of Metabolites). The extent of metabolism during in vitro incubation was highly dependent on the species (pig > mouse > rat > human) (Figure ).
(§7) For all phase I metabolism studies (except cell cultures), a 0.3 mL reaction mixture consisting of 1 mM substrate (P8-D6, P8-D6 mono, P8-D6 N-oxide), 1 mM NADPH as a cofactor, 0.67 mg/mL protein from homogenized tissue or subcellular fractions, respectively (except recombinant enzymes, where 0.5 mg/mL was used), and PBS buffer (pH 7.4) was used. All experiments were performed in biological triplicates. […]

The nature of data set [3]: In vitro biotransformation of P8-D6 with rat tissue fractions. The conditions noted are these: 1 mM P8-D6, 150 min. The class given is in vitro ADME. As to the method: as §6, §7

T3 sequence (P05177 whole entry): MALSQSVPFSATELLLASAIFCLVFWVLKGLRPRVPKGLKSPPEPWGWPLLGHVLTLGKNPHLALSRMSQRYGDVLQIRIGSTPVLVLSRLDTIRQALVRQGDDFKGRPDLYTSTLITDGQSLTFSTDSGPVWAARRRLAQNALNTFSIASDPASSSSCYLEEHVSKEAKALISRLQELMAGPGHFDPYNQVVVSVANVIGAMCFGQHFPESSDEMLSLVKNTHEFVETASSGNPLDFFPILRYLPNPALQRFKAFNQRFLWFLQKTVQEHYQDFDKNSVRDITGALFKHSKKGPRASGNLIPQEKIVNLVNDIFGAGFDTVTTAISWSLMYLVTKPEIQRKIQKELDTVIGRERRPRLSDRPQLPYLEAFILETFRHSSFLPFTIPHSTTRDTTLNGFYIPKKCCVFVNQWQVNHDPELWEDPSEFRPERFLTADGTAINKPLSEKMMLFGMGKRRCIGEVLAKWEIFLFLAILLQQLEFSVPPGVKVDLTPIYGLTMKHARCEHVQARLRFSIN

`COc1cc(-c2cc3ccncc3c3nc(OCCN(C)C)c4cnccc4c23)cc(OC)c1OC` [P8-D6, 6-(N,N-dimethyl-2-aminoethoxy)-11-(3,4,5-trimethoxyphenyl)-pyrido[3,4-c][1,9]-phenanthroline]: the “binding of P8-D6” value in the data set with γ-globulins amounted to 94.59%. Also, the 50% inhibitory concentration (IC50) (in general, the concentration that inhibits the measured activity by half) against CYP2C19 (HLM) stood at 149 µM; at CYP2C19 (recombinant CYP isoenzyme), 793 µM; against CYP2C9 (HLM), 162 µM; at CYP2C9 (recombinant CYP isoenzyme), 71.4 µM; on CYP1A2 (HLM), 912 µM; at CYP1A2 (recombinant CYP isoenzyme) it was 503 µM. The IC50 on CYP2D6 (HLM) was 285 µM; at CYP2D6 (recombinant CYP isoenzyme), 166 µM. For the same compound, the free fraction (fraction unbound) (commonly free concentration divided by total concentration) at 120 min in data set [1] amounted to 0.01. The logP – broadly, a log measure of how a compound divides between an organic and an aqueous phase – in “Lipophilicity” was 2.9. For the same compound, the logD in “Lipophilicity” (pH 7.4, read-out: log D7.4) was 3.7.
As for `COc1cc(-c2cc3ccncc3c3nc(OCC[N+](C)(C)[O-])c4cnccc4c23)cc(OC)c1OC` [P8-D6 N-oxide], the “formation of metabolite from P8-D6” value in [2] is recorded as 3.08%; in [3] (rat liver microsomes) it was 1.91%; in [3] (rat lung PNS), 1.37%.
